Data published in patent publication US20220257491A1, “Prebiotic Oral Care Compositions and Methods” (Colgate-Palmolive Company, priority 2021, published 2022).
Marks after values point to notes of the source that are not given here.

What was measured:
Assay type in all cases: cell-based
A. actinomycetemcomitans = assay: Multi-species biofilm composition: absolute abundance of A. actinomycetemcomitans; details: mean±SD n=3
Procedure: (§1) Biofilms are grown vertically on Calcium Deficient Hydroxyapatite (CAD-HA) disks (Hitemco Medical, Old Bethpage, USA) using the Amsterdam Active Adhesion model. Biofilms are allowed to establish during 24 h (37° C., 170 rpm) under micro-aerophilic conditions (6% O2, 7% CO2, 7% H2, 80% N2). After this 24 h, disks are rinsed 3 times a day for 3 minutes (RT, 250 rpm), for 3 consecutive days, by transferring the lid containing the disks to a new 24-well plate containing 2 mL/well of the appropriate substrate solution. As a negative control, PBS (pH 5.7) without substrate supplementation is used. After each rinsing step, disks are shortly dip-rinsed in a new 24-well plate containing fresh modified BHI medium (2 mL/well) to remove remaining substrate traces. Subsequently, the lid is transferred to another 24-well plate containing fresh modified BHI medium (2 mL/well), followed by incubation (micro-aerophilic, 37° C., 170 rpm) until the next rinsing step.
(§2) NADM, N-acetyl-D-glucosamine (“NADG”) and D-(+)-mannose are selected to determine their effects on multi-species biofilm composition. […] decrease in absolute numbers in at least four of the pathogenic bacterial species tested in the assay, compared to the control, the results of which are described in Table 1 below. Absolute abundances of bacterial species are shown as mean±SD (n=3) logarithmic values of the genome equivalents per millilitre (log(Geq/mL)).

[1] = tested on: A. actinomycetemcomitans virulence genes; assay: Multi-species biofilm virulence gene expression, SYBR RT-qPCR: A. actinomycetemcomitans; details: for Fold Change in virulence gene expression: aae / Fold Change in virulence gene expression: apaH / Fold Change in virulence gene expression: cdtB / Fold Change in virulence gene expression: emaA / Fold Change in virulence gene expression: flp / Fold Change in virulence gene expression: ltxA / Fold Change in virulence gene expression: omp29 / Fold Change in virulence gene expression: omp100 / Fold Change in virulence gene expression: orf859 / Fold Change in virulence gene expression: pgA / Fold Change in virulence gene expression: vapA / Fold Change in virulence gene expression: vppA: relative to control (=1), 2^-ΔΔCt, geometric mean n=3
Procedure: as §1
(§3) The expression of 33 virulence genes from 4 periodontal pathogens is analysed to evaluate the relative virulence of the substrate-treated biofilms. For all three substrates, virulence gene expression is determined relatively to the control, and these values are also compared between substrates when this is relevant (Tables 5a-5d).

S. mutans = assay: Multi-species biofilm composition: absolute abundance of S. mutans; details: mean±SD n=3
Procedure: as §1
NADM, N-acetyl-D-glucosamine (“NADG”) and D-(+)-mannose are selected to determine their effects on multi-species biofilm composition. Repeated rinsing of the biofilms with the substrates at a concentration of 1M results in a significant decrease in absolute numbers in at least four of the pathogenic bacterial species tested in the assay, compared to the control, the results of which are described in Table 1 below. Absolute abundances of bacterial species are shown as mean±SD (n=3) logarithmic values of the genome equivalents per millilitre (log(Geq/mL)).

[2] = tested on: human oral keratinocytes (HOK-18A); assay: Inflammatory mediator gene expression in keratinocytes exposed to substrate-treated biofilms; details: for Fold change in inflammatory mediator gene expression: IL-1β / Fold change in inflammatory mediator gene expression: IL-6 / Fold change in inflammatory mediator gene expression: IL-8 / Fold change in inflammatory mediator gene expression: MMP-8 / Fold change in inflammatory mediator gene expression: TNF-α: relative to control (=1), geometric mean (95% C.I.) n=3
Procedure: Cultures of immortalized human oral keratinocytes (HOK-18A) are grown. The relative inflammatory potential of the substrate-treated multi-species biofilms is evaluated by analyzing the expression of five inflammatory mediator genes in human oral keratinocytes (HOKs) exposed to the substrate-treated biofilms. […] The IL-8 levels in the cellular supernatant are determined as well. RNA is converted to cDNA and relative expression of inflammatory mediator genes is determined as described above with respect to the cellular housekeeping gene (3-actin.
In HOKs exposed to substrate-treated (substrate concentrations of 1 M) multi-species biofilms, mostly decreases in inflammatory mediator gene expression are observed and measured via SYBR RT-qPCR, the results of which are detailed in Table 6.
All substrates are dissolved in PBS at a concentration of 1 M (upper part) or 1% (w/v) (lower part). Values between 0 and 1 represent relative downregulation, values >1 represent relative upregulation. […] For such values, statistically significant differences between two experimental conditions are marked with ‘#1’ (vs. NADM), ‘#2’ (vs. NADG), ‘#3’ (vs. D-(+)-mannose) (P<0.05).

S. mitis = assay: Multi-species biofilm composition: absolute abundance of S. mitis; details: mean±SD n=3
Procedure: as §1, §2

S. sanguinis = assay: Multi-species biofilm composition: absolute abundance of S. sanguinis; details: mean±SD n=3
Procedure: as §1, §2

F. nucleatum = assay: Multi-species biofilm composition: absolute abundance of F. nucleatum; details: for Absolute abundance Fn (F. nucleatum): mean±SD n=3
Procedure: as §1, §2

[3] = tested on: P. intermedia virulence genes; assay: Multi-species biofilm virulence gene expression, SYBR RT-qPCR: P. intermedia; details: for Fold Change in virulence gene expression: DnaJ / Fold Change in virulence gene expression: DnaK / Fold Change in virulence gene expression: ECF / Fold Change in virulence gene expression: GroES / Fold Change in virulence gene expression: HtpG / Fold Change in virulence gene expression: KpsD / Fold Change in virulence gene expression: adpc / Fold Change in virulence gene expression: clpB / Fold Change in virulence gene expression: inpA / Fold Change in virulence gene expression: phg: relative to control (=1), 2^-ΔΔCt, geometric mean n=3
Procedure: as §1, §3

[4] = tested on: P. gingivalis virulence genes; assay: Multi-species biofilm virulence gene expression, SYBR RT-qPCR: P. gingivalis; details: relative to control, 2^-ΔΔCt, geometric mean n=3
Procedure: as §1, §3

[5] = biofilm rinsed with substrate 1%
[6] = biofilm rinsed with substrate 1M

In the case of `O=C[C@@H](O)[C@@H](O)[C@H](O)[C@H](O)CO` [D-mannose, D-(+)-mannose], the “Absolute abundance Aa (A. actinomycetemcomitans)” value (A. actinomycetemcomitans; substrate 1%(w/v) in PBS) is reported as 9.02 ± 0.11 log(Geq/mL), the “Absolute abundance Aa (A. actinomycetemcomitans)” value (A. actinomycetemcomitans; substrate 1 M in PBS) is reported as 6.07 ± 0.47 log(Geq/mL) and the “Fold Change in virulence gene expression: aae” value ([1]; substrate 1% (w/v)) is reported as 1.06 fold. For the same compound, the “Fold Change in virulence gene expression: apaH” value ([1]; substrate 1% (w/v)) was 0.72 fold, the “Fold Change in virulence gene expression: cdtB” value ([1]; substrate 1% (w/v)) was 0.36 fold and the “Fold Change in virulence gene expression: emaA” value ([1]; substrate 1% (w/v)) was 0.41 fold. The “Fold Change in virulence gene expression: flp” value ([1]; substrate 1% (w/v)) was 1.26 fold, the “Fold Change in virulence gene expression: ltxA” value ([1]; substrate 1% (w/v)) was 0.17 fold and the “Fold Change in virulence gene expression: omp29” value ([1]; substrate 1% (w/v)) was 0.65 fold. The “Fold Change in virulence gene expression: omp100” value ([1]; substrate 1% (w/v)) was 0.34 fold, the “Fold Change in virulence gene expression: orf859” value ([1]; substrate 1% (w/v)) was 1.46 fold and the “Fold Change in virulence gene expression: pgA” value ([1]; substrate 1% (w/v)) was 0.55 fold. The “Fold Change in virulence gene expression: vapA” value ([1]; substrate 1% (w/v)) was 0.39 fold, the “Fold Change in virulence gene expression: vppA” value ([1]; substrate 1% (w/v)) was 0.53 fold and the “A. actinomycetemcomitans gene expression decrease: cdtB, emaA, ltxA, omp100 and vapA” value ([1]; substrate 1%(w/v)) was 2.4- to 5.9 fold. The “Fold Change in virulence gene expression: aae” value ([1]; substrate 1M) was 0.16 fold, the “Fold Change in virulence gene expression: apaH” value ([1]; substrate 1M) was 0.12 fold and the “Fold Change in virulence gene expression: cdtB” value ([1]; substrate 1M) was 0.13 fold. The “Fold Change in virulence gene expression: emaA” value ([1]; substrate 1M) was 0.12 fold, the “Fold Change in virulence gene expression: flp” value ([1]; substrate 1M) was 1.57 fold and the “Fold Change in virulence gene expression: ltxA” value ([1]; substrate 1M) was 0.02 fold. For the same compound, the “Fold Change in virulence gene expression: omp29” value ([1]; substrate 1M) was 0.27 fold, the “Fold Change in virulence gene expression: omp100” value ([1]; substrate 1M) was 0.26 fold and the “Fold Change in virulence gene expression: orf859” value ([1]; substrate 1M) was 0.03 fold. For the same compound, the “Fold Change in virulence gene expression: pgA” value ([1]; substrate 1M) was 5.70 fold, the “Fold Change in virulence gene expression: vapA” value ([1]; substrate 1M) was 0.62 fold and the “Fold Change in virulence gene expression: vppA” value ([1]; substrate 1M) was 0.58 fold. The “Absolute abundance S. mutans” value (S. mutans; substrate 1%(w/v) in PBS) was 7.34 ± 0.12 log(Geq/mL), the “Absolute abundance S. mutans” value (S. mutans; substrate 1 M in PBS) was 8.60 ± 0.09 log(Geq/mL) and the “Fold change in inflammatory mediator gene expression: IL-1β” value [2, 5] was 0.79 (0.43-1.48) fold. For the same compound, the “Fold change in inflammatory mediator gene expression: IL-6” value [2, 5] was 0.79 (0.60-1.06) fold, the “Fold change in inflammatory mediator gene expression: IL-8” value [2, 5] was 1.22 (0.79-1.86) fold and the “Fold change in inflammatory mediator gene expression: MMP-8” value [2, 5] was 0.40 (0.27-0.58)* fold. The “Fold change in inflammatory mediator gene expression: TNF-α” value [2, 5] was 0.770.48-1.23) fold, the “Fold change in inflammatory mediator gene expression: IL-1β” value [2, 6] was 0.81 (0.59-1.12) fold and the “Fold change in inflammatory mediator gene expression: IL-6” value [2, 6] was 0.63 (0.41-0.97) fold. The “Fold change in inflammatory mediator gene expression: IL-8” value [2, 6] was 0.12 (0.06-0.27)* fold, the “Fold change in inflammatory mediator gene expression: MMP-8” value [2, 6] was 1.25 (1.10-1.42) fold and the “Fold change in inflammatory mediator gene expression: TNF-α” value [2, 6] was 0.77 (0.37-1.60) fold. The “Decreased MMP-8 gene expression” value ([2]; substrate 1%(w/v)) was 2.5 fold, the “Absolute abundance S. mitis” value (S. mitis; substrate 1%(w/v) in PBS) was 3.00 ± 0.49 log(Geq/mL) and the “Absolute abundance S. mitis” value (S. mitis; substrate 1 M in PBS) was “<LOD”. The “Absolute abundance S. sang. (S. sanguinis)” value (S. sanguinis; substrate 1%(w/v) in PBS) was 8.19 ± 0.11 log(Geq/mL), the “Absolute abundance S. sang. (S. sanguinis)” value (S. sanguinis; substrate 1 M in PBS) was 7.39 ± 0.89 log(Geq/mL) and the “Decrease in F. nucleatum vs control” value (F. nucleatum; substrate 1%(w/v)) was 1.1 log(Geq/mL). The “Absolute abundance Fn (F. nucleatum)” value (F. nucleatum; substrate 1%(w/v) in PBS) was 8.66 ± 0.29 log(Geq/mL), the “Absolute abundance Fn (F. nucleatum)” value (F. nucleatum; substrate 1 M in PBS) was 6.59 ± 0.36 log(Geq/mL) and the “Relative P. intermedia virulence gene expression, downregulation” value ([3]; substrate 1%(w/v), D-(+)-mannose for 3 genes) was 2- to 2.7 fold. For the same compound, the “Fold Change in virulence gene expression: DnaJ” value ([3]; substrate 1%) was 0.37 fold, the “Fold Change in virulence gene expression: DnaK” value ([3]; substrate 1%) was 0.63 fold and the “Fold Change in virulence gene expression: ECF” value ([3]; substrate 1%) was 0.6 fold. For the same compound, the “Fold Change in virulence gene expression: GroES” value ([3]; substrate 1%) was 0.51 fold, the “Fold Change in virulence gene expression: HtpG” value ([3]; substrate 1%) was 0.46 fold and the “Fold Change in virulence gene expression: KpsD” value ([3]; substrate 1%) was 0.96 fold. For the same compound, the “Fold Change in virulence gene expression: adpc” value ([3]; substrate 1%) was 0.54 fold, the “Fold Change in virulence gene expression: clpB” value ([3]; substrate 1%) was 1.00 fold and the “Fold Change in virulence gene expression: inpA” value ([3]; substrate 1%) was 0.37 fold. The “Fold Change in virulence gene expression: phg” value ([3]; substrate 1%) was 0.50 fold, the “Fold Change in virulence gene expression: DnaJ” value ([3]; substrate 1M) was 0.03 fold and the “Fold Change in virulence gene expression: DnaK” value ([3]; substrate 1M) was 0.44 fold. For the same compound, the “Fold Change in virulence gene expression: ECF” value ([3]; substrate 1M) was 1.47 fold, the “Fold Change in virulence gene expression: GroES” value ([3]; substrate 1M) was 0.37 fold and the “Fold Change in virulence gene expression: HtpG” value ([3]; substrate 1M) was 0.29 fold. The “Fold Change in virulence gene expression: KpsD” value ([3]; substrate 1M) was 0.42 fold, the “Fold Change in virulence gene expression: adpc” value ([3]; substrate 1M) was 0.27 fold and the “Fold Change in virulence gene expression: clpB” value ([3]; substrate 1M) was 0.14 fold. The “Fold Change in virulence gene expression: inpA” value ([3]; substrate 1M) was 0.47 fold, the “Fold Change in virulence gene expression: phg” value ([3]; substrate 1M) was 0.10 fold and the “Fold Change in virulence gene expression: fimA” value ([4]; substrate 1%) was 2.50 fold. The “Fold Change in virulence gene expression: kgp” value ([4]; substrate 1%) was 3.07 fold, the “Fold Change in virulence gene expression: partC” value ([4]; substrate 1%) was 0.60 fold and the “Fold Change in virulence gene expression: rgpA” value ([4]; substrate 1%) was 1.85 fold. For the same compound, the “Fold Change in virulence gene expression: fimA” value ([4]; substrate 1M) was 1.17 fold, the “Fold Change in virulence gene expression: kgp” value ([4]; substrate 1M) was 0.44 fold and the “Fold Change in virulence gene expression: partC” value ([4]; substrate 1M) was 0.09 fold. The “Fold Change in virulence gene expression: rgpA” value ([4]; substrate 1M) was 0.18 fold.
